Source: article PMC7047876, “Potent Chimeric Antimicrobial Derivatives of the Medicago truncatula NCR247 Symbiotic Peptide” (Frontiers in Microbiology, 2020)
In brackets after ≈: the same amount, converted by molar mass. Peptide text beside a SMILES is read from it.

Tests used:
Type in all cases: cell-based
[1] = system: human melanoma A375 cells; assay: XTT cell proliferation (cytotoxicity) assay; conditions: 72 h treatment, OD450, three biological repeats
Method: The cytotoxicity of peptides X1-NCR247C and NCR247C-X2 was determined against the human melanoma A375 cells with XTT cell proliferation assay kit (PanReac Applichem) and a benchtop microplate reader (Multiskan RC, Thermo Labsystems) according to the manufacturers’ instructions. A375 human melanoma cell line was obtained from ATCC and maintained in DMEM (Lonza) supplemented by 10% FBS (Euroclone) in a humidified incubator at 37°C and 5% CO2. A375 cells were seeded to 96-well plates (4,000 cells/well) and treated with the peptides for 72 h. Cells without peptides served as negative control and the blank sample was the medium. Reduction of the tetrazolium salt XTT by the viable cells to the orange colored compounds of formazan was measured at OD450. The XTT assay was performed in three biological repeats.

Acinetobacter baumannii = system: Acinetobacter baumannii
Text: (§1) The pathogenic bacterial strains obtained from the ATCC (United States) and NCTC (National Collection of Type Cultures – England) were the Gram-positive: Enterococcus faecalis (ATCC 29212), Staphylococcus aureus (HNCMO112011), Listeria monocytogenes (ATCC 19111) and the Gram-negative: Pseudomonas aeruginosa (ATCC 27853), Escherichia coli (ATCC 8739), Salmonella enterica (ATCC 13076), Klebsiella pneumoniae (NCTC 13440), Acinetobacter baumannii (ATCC 17978).
(§2) Ca^2+ and Mg^2+ can inhibit the antimicrobial activity of cationic peptides, therefore the MBC and MIC values were also determined in MHB, which unlike PPB contains divalent cations and allows growth of bacteria. Bacteria were grown and prepared similarly except that bacteria were resuspended in MHB. 10 μl of bacteria OD600 = 0.1, supplemented with 45 μl MHB and 45 μl of 2-fold dilution series of peptides, were cultivated for 3 and 20 h at 37°C with shaking. Optical density of each sample was measured (Hidex Sense Microplate Reader with Plate Reader Software version 5064) and 5 μl was placed on LB agar plates after 3 and 20 h treatment. The minimal inhibitory concentration (MIC) corresponded to the lowest concentration, which inhibited growth.

Staphylococcus aureus = system: Staphylococcus aureus
Text: as §1, §2

Escherichia coli = system: Escherichia coli
Text: as §1, §2

[2] = system: Staphylococcus aureus (HNCMO112011); assay: microbe, parasite or virus in culture; conditions: HNCMO112011, 3 h, pH 7.4; read-out: Minimal bactericidal concentration (MBC) S. a.
Text: as §1
(§3) Overnight bacterial cultures grown in LB were diluted and grown to OD600 = 0.2–0.6 at 37°C with shaking. After harvesting and washing bacteria in PPB, the suspensions were adjusted to OD600 = 0.1 corresponding to ∼10^7 bacteria/mL. Antimicrobial activity of the peptides and the antibiotics was determined in PPB in 96 well microplates using 10 μL bacterial suspension and 90 μL of the 2-fold serial dilutions of peptides or antibiotics. Peptides were tested from 25 μM to 0.125 μM whereas the antibiotics; carbenicillin (Cb) from Duchefa Biochemie (Prod.No. C0109.0025) and levofloxacin (Lvx) from Sigma-Aldrich (Prod.No. 28266-10MG-F) from […] to 0.1 μM. The microplates were incubated for 3 h at 37°C with 250 rpm shaking and then 5 μl from each sample was placed on LB agar and the growth of bacteria was monitored after overnight incubation at 37°C. The lowest concentration of the antimicrobial agents, which completely eliminated viable bacteria was the minimal bactericidal concentration (MBC).

[3] = system: Listeria monocytogenes (ATCC 19111); assay: microbe, parasite or virus in culture; conditions: ATCC 19111, 3 h, pH 7.4; read-out: Minimal bactericidal concentration (MBC) L. m.
Text: as §1, §3

[4] = system: Salmonella enterica (ATCC 13076); assay: microbe, parasite or virus in culture; conditions: ATCC 13076, 3 h, pH 7.4; read-out: Minimal bactericidal concentration (MBC) S. e.
Text: as §1, §3

[5] = system: Acinetobacter baumannii (ATCC 17978); assay: microbe, parasite or virus in culture; conditions: ATCC 17978, 3 h, pH 7.4; read-out: Minimal bactericidal concentration (MBC) A. b.
Text: as §1, §3

[6] = system: Klebsiella pneumoniae (NCTC 13440); assay: microbe, parasite or virus in culture; conditions: NCTC 13440, 3 h, pH 7.4; read-out: Minimal bactericidal concentration (MBC) K. p.
Text: as §1, §3

[7] = system: Pseudomonas aeruginosa (ATCC 27853); assay: microbe, parasite or virus in culture; conditions: ATCC 27853, 3 h, pH 7.4; read-out: Minimal bactericidal concentration (MBC) P. a.
Text: as §1, §3

[8] = system: Escherichia coli (ATCC 8739); assay: microbe, parasite or virus in culture; conditions: ATCC 8739, 3 h, pH 7.4; read-out: Minimal bactericidal concentration (MBC) E. c.
Text: as §1, §3

[9] = system: Enterococcus faecalis (ATCC 29212); assay: microbe, parasite or virus in culture; conditions: ATCC 29212, 3 h, pH 7.4; read-out: Minimal bactericidal concentration (MBC) E. f.
Text: as §1, §3

With `CSCC[C@H](NC(=O)[C@H](CCCCN)NC(=O)[C@H](Cc1ccccc1)NC(=O)[C@H](CC(N)=O)NC(=O)[C@H](CC(C)C)NC(=O)[C@@H]1CCCN1C(=O)[C@@H](N)CCCNC(=N)N)C(=O)N[C@@H](CC(C)C)C(=O)N[C@@H](CCCNC(=N)N)C(=O)N[C@@H](Cc1ccccc1)C(=O)N[C@@H](Cc1c[nH]c2ccccc12)C(=O)NCC(=O)N[C@@H](CCC(N)=O)C(=O)N[C@@H](CCC(N)=O)C(=O)N[C@@H](CCC(N)=O)C(=O)N[C@@H](CS)C(=O)N[C@@H](CCCNC(=N)N)C(=O)N[C@@H](CCCNC(=N)N)C(=O)N1CCC[C@H]1C(=O)N[C@@H](CC(C)C)C(=O)N[C@@H](Cc1ccc(O)cc1)C(=O)N[C@@H](CS)C(=O)N[C@@H](CCCNC(=N)N)C(=O)N[C@@H](CCCNC(=N)N)C(=O)N[C@@H](CCCNC(=N)N)C(N)=O` [D, X1-NCR247C] (H-RPLNFKMLRFWGQQQCRRPLYCRRR-NH2; N-terminus assumed) the “Cytotoxicity / viability of A375 cells” value [1] was “did not show differences”, the “MBC in Mueller Hinton Broth, panel (A), A. b.” value (Acinetobacter baumannii; 3 h) was 6.3 µM (≈ 20.8 µg/mL) and the “MBC in Mueller Hinton Broth, panel (B), A. b.” value (Acinetobacter baumannii; 20 h) was 3.1 µM (≈ 10.3 µg/mL). The “MIC in Mueller Hinton Broth, panel (C), A. b.” value (Acinetobacter baumannii; 20 h) was 3.1 µM (≈ 10.3 µg/mL), the “MBC in Mueller Hinton Broth, panel (A), S. a.” value (Staphylococcus aureus; 3 h) was 25 µM (≈ 82.7 µg/mL) and the “MBC in Mueller Hinton Broth, panel (B), S. a.” value (Staphylococcus aureus; 20 h) was 3.1 µM (≈ 10.3 µg/mL). The “MIC in Mueller Hinton Broth, panel (C), S. a.” value (Staphylococcus aureus; 20 h) was 3.1 µM (≈ 10.3 µg/mL), the “MBC in Mueller Hinton Broth, panel (A), E. c.” value (Escherichia coli; 3 h) was 12.5 µM (≈ 41.4 µg/mL) and the “MBC in Mueller Hinton Broth, panel (B), E. c.” value (Escherichia coli; 20 h) was 3.1 µM (≈ 10.3 µg/mL). For the same compound, the “MIC in Mueller Hinton Broth, panel (C), E. c.” value (Escherichia coli; 20 h) was 3.1 µM (≈ 10.3 µg/mL), the MBC [2] was 3.1 µM (≈ 10.3 µg/mL) and the MBC [3] was 3.1 µM (≈ 10.3 µg/mL). For the same compound, the MBC [4] was 1.6 µM (≈ 5.29 µg/mL), the MBC [5] was 3.1 µM (≈ 10.3 µg/mL) and the MBC [6] was 12.5 µM (≈ 41.4 µg/mL). It also gave an MBC [7] of 3.1 µM (≈ 10.3 µg/mL), an MBC [8] of 3.1 µM (≈ 10.3 µg/mL) and an MBC [9] of 6.3 µM (≈ 20.8 µg/mL).
